Measured values as given in paper PMC6337391 (Molecules, 2019).

Assays:
[1] = Inhibition of linoleic acid lipid peroxidation (AAPH)
In short: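 Sodium linoleate oxidation was initiated by AAPH in 0.05 M phosphate buffer, pH 7.4, at 37 °C, with test compound present and DMSO as blank. Conjugated diene hydroperoxide formation was followed as the absorbance increase at 234 nm.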

[2] = ABTS•+ decolorization assay
In short: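 Compounds (10 mM DMSO stocks, diluted) added to ABTS•+ radical generated by potassium persulfate oxidation of ABTS. Decolorization followed as absorbance at room temperature, with Trolox as standard.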

[3] = Lipophilicity as RM values by RP-TLC; type: physicochemical; parameters: key: RM = log[(1/Rf) − 1]; settings: methanol/water 70/30, SD < 10%
In short: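 Reversed-phase TLC on silica gel plates impregnated with 5% (v/v) liquid paraffin, methanol/water 70/30 (v/v) mobile phase, saturated tanks at 24 °C, UV detection. RM = log[(1/Rf) − 1] from five Rf measurements.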

[4] = test system: L929 mouse fibroblasts cells; experiment: Cytotoxicity, propidium iodide fluorescence method; type: cell-based; settings: 24-h incubation
In short: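 L929 cells in EMEM with 10% horse serum were allowed to attach for 24 h, then exposed to 1, 10, 20, 50 and 100 μM compound for 24 h at 37 °C. Cells were detached, stained with propidium iodide, and cell death was measured by flow cytometry.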

## O=C(/C=C/c1cccc2ccccc12)c1ccccc1O [b4, (E)-1-(2-hydroxyphenyl)-3-(naphthalen-1-yl) prop-2-en-1-one]
[1]
  AAPH% @ 100 μM (anti-lipid peroxidation): 82%
[2]
  ABTS•+ Inhb. % @ 100 μM: No
[3]
  RM: −0.03

## O=C(/C=C/C=C/c1ccc([N+](=O)[O-])cc1)c1ccc(OCCCOc2ccc(C(=O)/C=C/C=C/c3ccc([N+](=O)[O-])cc3)cc2)cc1 [c11, (2E,2′E,4E,4′E)-1,1′-((propane-1,3-diylbis(oxy))bis(4,1-phenylene))bis(5-(4-nitrophenyl)penta-2,4-dien-1-one)]
[1]
  AAPH% @ 100 μM (anti-lipid peroxidation): 68%
[4]
  1 μM Average (% pi) ± σ: 6.4 ± 0.4%
  10 μM Average (% pi) ± σ: 19.07 ± 7.23%
  20 μM Average (% pi) ± σ: 34.63 ± 0.31%
  50 μM Average (% pi) ± σ: 64.53 ± 3.07%
  100 μM Average (% pi) ± σ: 64.53 ± 3.07%
[2]
  ABTS•+ Inhb. % @ 100 μM: No
[3]
  RM: −0.88

## CC(=O)c1ccc(OCCOc2ccc(C(C)=O)cc2)cc1 [di, 1,1′-((ethane-1,2-diylbis(oxy))bis(4,1-phenylene))diethanone]
[1]
  AAPH% @ 100 μM (anti-lipid peroxidation): 22%
[4]
  1 μM Average (% pi) ± σ: 4.94 ± 1.02%
  10 μM Average (% pi) ± σ: 9.05 ± 0.58%
  20 μM Average (% pi) ± σ: 16.78 ± 5.61%
  50 μM Average (% pi) ± σ: 33.22 ± 9.65%
  100 μM Average (% pi) ± σ: 33.22 ± 9.65%
[2]
  ABTS•+ Inhb. % @ 100 μM: No
[3]
  RM: 0.67

## CC(=O)c1ccc(OCCCCCCCOc2ccc(C(C)=O)cc2)cc1 [dvi, 1,1′-((heptane-1,7-diylbis(oxy))bis-(4,1-phenylene)) diethanone]
[1]
  AAPH% @ 100 μM (anti-lipid peroxidation): 12%
[4]
  1 μM Average (% pi) ± σ: 0.37 ± 0.52%
  10 μM Average (% pi) ± σ: 1.92 ± 1.02%
  20 μM Average (% pi) ± σ: 1.79 ± 1.53%
  50 μM Average (% pi) ± σ: 2.55 ± 0.5%
  100 μM Average (% pi) ± σ: 2.55 ± 0.5%
[2]
  ABTS•+ Inhb. % @ 100 μM: No
[3]
  RM: 0.32
